Reference: EPA's ToxValDB 9.5 (doi:10.2903/j.efsa.2009.174r)

What was measured:
[1] = tested on: Homo sapiens; details: clinical; oral; capsule; clinical signs
[2] = reproductive
[3] = tested on: Canidae; details: oral, Dog Other
[4] = tested on: Cyprinus carpio; details: acute; duration: 96 hours; mortality
[5] = tested on: Daphnia magna; details: chronic/long-term; duration: 21 days; reproduction
[6] = tested on: Pimephales promelas; details: chronic/long-term; duration: 34 days; reproduction
[7] = tested on: Zea sp.; details: chronic/long-term
[8] = tested on: Tagia sp.
[9] = tested on: Anas platyrhynchos; details: acute, oral, unspecified
[10] = tested on: Rattus norvegicus; details: acute; oral; mortality
[11] = tested on: Apis mellifera; details: acute; duration: 48 hours; dermal; mortality
[12] = tested on: Coturnix japonica; details: reproduction developmental; duration: 6 weeks
[13] = tested on: Aphidius rhopalosiphi; details: not reported; mortality
[14] = tested on: Landoltia sp.; details: chronic/long-term; duration: 14 days
[15] = tested on: Colinus virginianus; details: oral; for LD50: acute, mortality

Work on O=P(O)(O)CCCl [Ethephon] yielded an NOAEL [1] of 0.5 mg/kg-day, an NOAEL [2] of 22.8 mg/kg-day and an NOAEL ([3]; chronic, duration: 1 years, body weight) of 27 mg/kg-day. For the same molecule, the NOAEL ([3]; short-term, duration: 28 days, clinical chemistry) was 6 mg/kg-day, the LC50 [4] was over 100 µg/mL and the NOEC [5] was 67 mg/L. For the same molecule, the NOEC [6] was 43 mg/L, the NOEC [7] was 2580 g/ha and the LC50 ([8]; acute, duration: 14 days, mortality) was over 60000 g/ha. It also gave an NOEC ([8]; chronic/long-term, duration: 8 weeks, reproduction) of at least 200 mg/kg, an NOEL [9] of 450 mg/kg and an LD50 ([9]; mortality) of 1420 mg/kg. The LD50 [10] was 1560 mg/kg, the LD50 [11] was over 100 µg/piece and the NOEL [12] was 159 mg/kg-day. For the same molecule, the LEL [13] was 480 g/ha, the NOEC [14] was under 0.1 mg/L and the LD50 ([15]; duration: 8 days, diet) was over 450 mg/kg. The LD50 [15] was 764 mg/kg and the NOEL ([15]; short-term, duration: 8 days, diet) was over 530 mg/kg-day.
